Target: T1, Adenosine receptor A3 (Homo sapiens, UniProt P0DMS8)
T1 sequence (P0DMS8 whole entry): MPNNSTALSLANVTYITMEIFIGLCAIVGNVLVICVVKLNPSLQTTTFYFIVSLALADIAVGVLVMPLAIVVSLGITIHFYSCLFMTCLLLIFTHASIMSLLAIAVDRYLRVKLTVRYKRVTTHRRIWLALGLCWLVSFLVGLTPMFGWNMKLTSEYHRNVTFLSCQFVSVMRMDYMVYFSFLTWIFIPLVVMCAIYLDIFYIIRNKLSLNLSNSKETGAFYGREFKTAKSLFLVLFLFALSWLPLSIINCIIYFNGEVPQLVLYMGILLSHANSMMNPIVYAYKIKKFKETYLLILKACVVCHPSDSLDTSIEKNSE
Assay: Antagonist activity at human adenosine A3 receptor
Type: functional

Row | Ki [nM] | SMILES
1 | 0.01 | Cn1cc2c(nc(NC(=O)N[n+]3ccccc3)n3nc(-c4ccco4)nc23)n1
2 | 8.48 | O=C(Cc1ccccc1)Nc1nc2nn(CCc3ccccc3)cc2c2nc(-c3ccc(Cl)cc3)nn12
